Data reported in patent US5475132A, “Antifungal agents based on amides containing a phenyl group” (Rhone-Poulenc Agrochimie, priority 1988, dated 1995).

tested on: Phytophthora citrophthora; test: Example B3: action on phytopathogenic soil fungi, growth on agar in Petri dishes; assay type: cell-based; settings: 120 h, 30 ppm, agar medium, 22° C., 5 days, read-out: inhibition of the development of the fungus

Q: How did the inhibition at 30 ppm turn out when `COc1ccc(-c2cc(-c3ccc4c(c3)OCO4)ccc2C(=O)N2CCOCC2)cc1OC` [Compound 239] was run?
A: ≥ 80%

Q: How did the inhibition at 30 ppm turn out when `COc1ccc(-c2nc(-c3ccccc3)ccc2C(=O)N2CCOCC2)cc1OC` [Compound 301, N-[2-(3,4-dimathoxyphenyl)-6-phenylnicotinoyl]morpholine] was run?
A: ≥ 80%

Q: With `COc1ccc(-c2nc(-c3ccc(Cl)cc3)ccc2C(=O)N2CCOCC2)cc1OC` [Compound 345] as the molecule, how does the inhibition at 30 ppm read?
A: ≥ 80%

Q: For `CCN(C)C(=O)c1ccc(-c2ccc(Cl)cc2)nc1-c1ccc(OC)c(OC)c1` [Compound 347], which inhibition at 30 ppm is on record?
A: ≥ 80%

Q: `COc1ccc(-c2nc(-c3ccc(F)cc3)ccc2C(=O)N2CCOCC2)cc1OC` [Compound 349] was tested. Which inhibition at 30 ppm did it give?
A: ≥ 80%

Q: With `CCN(C)C(=O)c1ccc(-c2ccc(F)cc2)nc1-c1ccc(OC)c(OC)c1` [Compound 350] as the molecule, how does the inhibition at 30 ppm read?
A: ≥ 80%

Q: Which inhibition at 30 ppm does the source give for `COCCN(C)C(=O)c1ccc(-c2ccc(F)cc2)nc1-c1ccc(OC)c(OC)c1` [Compound 353] here?
A: ≥ 80%

Q: With `COCCN(C)C(=O)c1ccc(-c2ccccc2)nc1-c1ccc(OC)c(OC)c1` [Compound 354] as the molecule, how does the inhibition at 30 ppm read?
A: ≥ 80%

Q: For `COc1ccc(-c2nc(-c3ccc(C4CC4(Cl)Cl)cc3)ccc2C(=O)N2CCOCC2)cc1OC` (stereo not shown) [Compound 355], which inhibition at 30 ppm is on record?
A: ≥ 80%

Q: For `COc1ccc(-c2nc(-c3ccc(C(C)C)cc3)ccc2C(=O)N2CCOCC2)cc1OC` [Compound 356], which inhibition at 30 ppm is on record?
A: ≥ 80%

Q: For `C=CCN(C)C(=O)c1ccc(-c2ccccc2)nc1-c1ccc(OC)c(OC)c1` [Compound 359], which inhibition at 30 ppm is on record?
A: ≥ 80%

Q: `COc1ccc(-c2nc(-c3ccccc3)ccc2C(=O)N(C)C(C)C)cc1OC` [Compound 360] was tested. Which inhibition at 30 ppm did it give?
A: ≥ 80%

Q: How did the inhibition at 30 ppm turn out when `COc1ccc(-c2nc(-c3ccc(Cl)cc3)ccc2C(=O)N(C)CC#N)cc1OC` [Compound 363] was run?
A: ≥ 80%

Q: Which inhibition at 30 ppm does the source give for `CCN(CC)C(=O)c1ccc(-c2ccc(Cl)cc2)nc1-c1ccc(OC)c(OC)c1` [Compound 364] here?
A: ≥ 80%

Q: Which inhibition at 30 ppm does the source give for `CCCN(C)C(=O)c1ccc(-c2ccccc2)nc1-c1ccc(OC)c(OC)c1` [Compound 365] here?
A: ≥ 80%

Q: Which inhibition at 30 ppm does the source give for `COc1ccc(-c2nc(-c3ccc(Br)cc3)ccc2C(=O)N(C)CCOC(C)=O)cc1OC` [Compound 366] here?
A: ≥ 80%

Q: `COc1ccc(-c2nc(-c3ccc(Cl)cc3)c(C)cc2C(=O)N2CCOCC2)cc1OC` [Compound 367] was tested. Which inhibition at 30 ppm did it give?
A: ≥ 80%

Q: Which inhibition at 30 ppm does the source give for `COc1ccc(-c2nc(-c3ccc(F)cc3)c(C)cc2C(=O)N2CCOCC2)cc1OC` [Compound 368] here?
A: ≥ 80%

Q: Which inhibition at 30 ppm does the source give for `CCN(C)C(=O)c1ccc(-c2ccccc2)nc1-c1ccc(OC)c(OC)c1` [Compound 369] here?
A: ≥ 80%

Q: How did the inhibition at 30 ppm turn out when `COc1ccc(-c2nc(-c3ccccc3)ccc2C(=O)N(C)C)cc1OC` [Compound 370] was run?
A: ≥ 80%

Q: How did the inhibition at 30 ppm turn out when `COc1ccc(-c2nc(-c3ccc(Cl)cc3)ccc2C(=O)N2CCCC2)cc1OC` [Compound 373] was run?
A: ≥ 80%

Q: How did the inhibition at 30 ppm turn out when `COc1ccc(-c2nc(-c3ccc(Cl)cc3)ccc2C(=O)N2CCCCC2)cc1OC` [Compound 376] was run?
A: ≥ 80%

Q: For `COc1ccc(-c2nc(-c3ccc(Cl)cc3)ccc2C(=O)N2CCC(O)CC2)cc1OC` [Compound 377], which inhibition at 30 ppm is on record?
A: ≥ 80%

Q: How did the inhibition at 30 ppm turn out when `COc1ccc(-c2nc(-c3ccc(Cl)cc3)ccc2C(=O)N(C)Cc2ccco2)cc1OC` [Compound 378] was run?
A: ≥ 80%

Q: How did the inhibition at 30 ppm turn out when `COCCN(C)C(=O)c1ccc(-c2ccc(Cl)cc2)nc1-c1ccc(OC)c(OC)c1` [Compound 379] was run?
A: ≥ 80%

Q: With `COc1ccc(-c2nc(-c3ccc(Br)cc3)ccc2C(=O)N(C)CCO)cc1OC` [Compound 380] as the molecule, how does the inhibition at 30 ppm read?
A: ≥ 80%

Q: For `COc1ccc(-c2nc(-c3ccc(Cl)cc3)ccc2C(=O)N(C)CC2CCCO2)cc1OC` (stereo not shown) [Compound 381], which inhibition at 30 ppm is on record?
A: ≥ 80%

Q: `COc1ccc(-c2nc(-c3ccc(C#N)cc3)ccc2C(=O)N2CCOCC2)cc1OC` [Compound 382] was tested. Which inhibition at 30 ppm did it give?
A: ≥ 80%

Q: With `COc1ccc(-c2nc(-c3ccc(Cl)cc3)ccc2C(=O)N(C)CCO)cc1OC` [Compound 383] as the molecule, how does the inhibition at 30 ppm read?
A: ≥ 80%

Q: `COc1ccc(-c2nc(-c3ccc(C)cc3)ccc2C(=O)N2CCOCC2)cc1OC` [Compound 384] was tested. Which inhibition at 30 ppm did it give?
A: ≥ 80%

Q: For `COc1ccc(-c2nc(-c3ccc(Br)cc3)ccc2C(=O)N2CCOCC2)cc1OC` [Compound 385], which inhibition at 30 ppm is on record?
A: ≥ 80%

Q: `C=CCN(C)C(=O)c1ccc(-c2ccc(Cl)cc2)nc1-c1ccc(OC)c(OC)c1` [Compound 386] was tested. Which inhibition at 30 ppm did it give?
A: ≥ 80%

Q: Which inhibition at 30 ppm does the source give for `CCN(CC)C(=O)c1ccc(-c2ccccc2)nc1-c1ccc(OC)c(OC)c1` [Compound 388] here?
A: ≥ 80%

Q: How did the inhibition at 30 ppm turn out when `COc1ccc(-c2ccc(C(=O)N3CCOCC3)c(-c3ccc(OC)c(OC)c3)n2)cc1` [Compound 389] was run?
A: ≥ 80%

Q: How did the inhibition at 30 ppm turn out when `CCN(C)C(=O)c1ccc(-c2ccc(Br)cc2)nc1-c1ccc(OC)c(OC)c1` [Compound 390] was run?
A: ≥ 80%

Q: For `COc1ccc(-c2nc(-c3ccccc3C)ccc2C(=O)N2CCOCC2)cc1OC` [Compound 391], which inhibition at 30 ppm is on record?
A: ≥ 80%

Q: With `COc1ccc(-c2nc(-c3ccccc3Cl)ccc2C(=O)N2CCOCC2)cc1OC` [Compound 392] as the molecule, how does the inhibition at 30 ppm read?
A: ≥ 80%

Q: `COCCN(C)C(=O)c1ccc(-c2ccc(Br)cc2)nc1-c1ccc(OC)c(OC)c1` [Compound 393] was tested. Which inhibition at 30 ppm did it give?
A: ≥ 80%

Q: `COc1ccc(-c2nc(-c3ccc(Cl)cc3)ccc2C(=O)N(C)OC)cc1OC` [Compound 394] was tested. Which inhibition at 30 ppm did it give?
A: ≥ 80%

Q: `COc1ccc(-c2nc(-c3ccccc3)ccc2C(=O)N(C)CCO)cc1OC` [Compound 395] was tested. Which inhibition at 30 ppm did it give?
A: ≥ 80%

Q: For `COc1ccc(-c2nc(-c3ccccc3)ccc2C(=O)N(C)CCOC(C)=O)cc1OC` [Compound 396], which inhibition at 30 ppm is on record?
A: ≥ 80%

Q: For `COc1ccc(-c2nc(-c3ccc(Cl)cc3)ccc2C(=O)N(C)CCOC(C)=O)cc1OC` [Compound 397], which inhibition at 30 ppm is on record?
A: ≥ 80%

Q: Which inhibition at 30 ppm does the source give for `COc1ccc(-c2nc(-c3ccc(Cl)cc3)ncc2C(=O)N2CCOCC2)cc1OC` [Compound 407, 2-(4-Chlorophenyl)-4-(3,4-dimethoxyphenyl)-5-morpholinocarbonylpyrimidine] here?
A: ≥ 80%

Q: Which inhibition at 30 ppm does the source give for `COc1ccc(-c2nc(-c3ccccc3)ncc2C(=O)N2CCOCC2)cc1OC` [Compound 414] here?
A: ≥ 80%

Q: How did the inhibition at 30 ppm turn out when `CCN(C)C(=O)c1cnc(-c2ccccc2)nc1-c1ccc(OC)c(OC)c1` [Compound 415] was run?
A: ≥ 80%

Q: For `COCCN(C)C(=O)c1cnc(-c2ccccc2)nc1-c1ccc(OC)c(OC)c1` [Compound 416], which inhibition at 30 ppm is on record?
A: ≥ 80%

Q: How did the inhibition at 30 ppm turn out when `CCN(CC)C(=O)c1cnc(-c2ccc(Cl)c(Cl)c2)nc1-c1ccc(OC)c(OC)c1` [Compound 420] was run?
A: ≥ 80%

Q: For `COc1ccc(-c2nc(-c3cccc(C(F)(F)F)c3)ncc2C(=O)N2CCOCC2)cc1OC` [Compound 425], which inhibition at 30 ppm is on record?
A: ≥ 80%

Q: Which inhibition at 30 ppm does the source give for `COc1ccc(-c2nc(-c3cccc(C(F)(F)F)c3)ncc2C(=O)O)cc1OC` [Compound 426] here?
A: ≥ 80%

Q: `COc1ccc(-c2nc(-c3ccc(Br)cc3)ncc2C(=O)N2CCOCC2)cc1OC` [Compound 427] was tested. Which inhibition at 30 ppm did it give?
A: ≥ 80%

Q: For `CCN(C)C(=O)c1cnc(-c2cccc(C(F)(F)F)c2)nc1-c1ccc(OC)c(OC)c1` [Compound 428], which inhibition at 30 ppm is on record?
A: ≥ 80%

Q: With `CCN(CC)C(=O)c1cnc(-c2cccc(C(F)(F)F)c2)nc1-c1ccc(OC)c(OC)c1` [Compound 429] as the molecule, how does the inhibition at 30 ppm read?
A: ≥ 80%

Q: For `CCN(CC)C(=O)c1cnc(-c2ccc(Br)cc2)nc1-c1ccc(OC)c(OC)c1` [Compound 430], which inhibition at 30 ppm is on record?
A: ≥ 80%

Q: Which inhibition at 30 ppm does the source give for `COc1ccc(-c2nc(Oc3ccc(C)cc3)ncc2C(=O)N2CCOCC2)cc1OC` [Compound 433, 4-(3,4-dimethoxyphenyl)-2-(4-methylphenoxy)-5-morpholinocarbonylpyrimidine] here?
A: ≥ 80%

Q: `COc1ccc(-c2nc(SCc3ccccc3)ncc2C(=O)N2CCOCC2)cc1OC` [Compound 434] was tested. Which inhibition at 30 ppm did it give?
A: ≥ 80%

Q: How did the inhibition at 30 ppm turn out when `COc1ccc(-c2nc(SCc3ccc(Cl)cc3)ncc2C(=O)N2CCOCC2)cc1OC` [Compound 435] was run?
A: ≥ 80%

Q: For `COc1ccc(-c2nc(Sc3ccc(Cl)cc3)ncc2C(=O)N2CCOCC2)cc1OC` [Compound 436], which inhibition at 30 ppm is on record?
A: ≥ 80%

Q: How did the inhibition at 30 ppm turn out when `COc1ccc(-c2nc(Oc3ccc(Cl)cc3)ncc2C(=O)N2CCOCC2)cc1OC` [Compound 437] was run?
A: ≥ 80%

Q: With `COc1ccc(-c2nc(Oc3ccc(Br)cc3)ncc2C(=O)N2CCOCC2)cc1OC` [Compound 438] as the molecule, how does the inhibition at 30 ppm read?
A: ≥ 80%

Q: For `COc1ccc(-c2nc(Oc3ccc(F)cc3)ncc2C(=O)N2CCOCC2)cc1OC` [Compound 439], which inhibition at 30 ppm is on record?
A: ≥ 80%

Q: How did the inhibition at 30 ppm turn out when `COc1ccc(-c2nc(Oc3ccccc3C)ncc2C(=O)N2CCOCC2)cc1OC` [Compound 440] was run?
A: ≥ 80%

Q: With `COc1ccc(-c2nc(Oc3ccc(Cl)c(C)c3)ncc2C(=O)N2CCOCC2)cc1OC` [Compound 441] as the molecule, how does the inhibition at 30 ppm read?
A: ≥ 80%

Q: `COc1ccc(-c2nc(Oc3ccc(C(F)(F)F)cc3)ncc2C(=O)N2CCOCC2)cc1OC` [Compound 442] was tested. Which inhibition at 30 ppm did it give?
A: ≥ 80%

Q: With `COc1ccc(-c2nc(Sc3cccc(Cl)c3)ncc2C(=O)N2CCOCC2)cc1OC` [Compound 445] as the molecule, how does the inhibition at 30 ppm read?
A: ≥ 80%

Q: Which inhibition at 30 ppm does the source give for `COc1ccc(-c2nc(Sc3ccc(Br)cc3)ncc2C(=O)N2CCOCC2)cc1OC` [Compound 447] here?
A: ≥ 80%

Q: Which inhibition at 30 ppm does the source give for `COc1ccc(-c2nc(Sc3ccc(F)cc3)ncc2C(=O)N2CCOCC2)cc1OC` [Compound 449] here?
A: ≥ 80%

Q: `COc1ccc(-c2nc(Sc3ccc(Cl)c(Cl)c3)ncc2C(=O)N2CCOCC2)cc1OC` [Compound 450] was tested. Which inhibition at 30 ppm did it give?
A: ≥ 80%

Q: With `COc1ccc(-c2nc(N3CCCCC3)ncc2C(=O)N2CCOCC2)cc1OC` [Compound 458] as the molecule, how does the inhibition at 30 ppm read?
A: ≥ 80%

Q: Which inhibition at 30 ppm does the source give for `COc1ccc(-c2cc(-c3ccccc3)nc(C)c2C(=O)N2CCOCC2)cc1OC` [Compound 505, N-[4-(3,4-dimethoxyphenyl)-2-methyl-6-phenylnicotinoyl]morpholine] here?
A: ≥ 80%

Q: For `CCN(C)C(=O)c1c(-c2ccc(OC)c(OC)c2)cc(-c2ccccc2)nc1C` [Compound 506], which inhibition at 30 ppm is on record?
A: ≥ 80%

Q: How did the inhibition at 30 ppm turn out when `COCCN(C)C(=O)c1c(-c2ccc(OC)c(OC)c2)cc(-c2ccccc2)nc1C` [Compound 507] was run?
A: ≥ 80%

Q: Which inhibition at 30 ppm does the source give for `COc1ccc(-c2c(C(=O)N3CCOCC3)cc(-c3ccc(F)cc3)n2C)cc1OC` [Compound 607, 5-(4-fluorophenyl)-2-(3,4-dimethoxyphenyl)-1-methyl-3-(morpholinocarbonyl)pyrrole] here?
A: ≥ 80%

Q: With `COc1ccc(-c2c(C(=O)N3CCOCC3)cnn2-c2ccc(Cl)cc2)cc1OC` [Compound 608, 2-(4-Chlorophenyl)-3-(3,4-dimethoxyphenyl)-4-(morpholinocarbonyl)pyrazole] as the molecule, how does the inhibition at 30 ppm read?
A: ≥ 80%
